Test results taken from patent publication US20110137633A1, “ANTI-VIRAL COMPOUNDS AND METHODS OF IDENTIFYING THE SAME” (ABBOTT LABORATORIES, priority 2009, published 2011).

How the values were obtained:
HCV 1b replicon = HCV 1b replicon assay (luciferase reporter); type: cell-based, Hepatitis C virus genotype 1b-Con1; conditions: in vitro, relative to compound of FIG. 2A
HCV 1a replicon = HCV 1a replicon assay (luciferase reporter); type: cell-based, Hepatitis C virus genotype 1a-H77; conditions: in vitro, relative to compound of FIG. 2A

## CC(C)c1ccc2c(Nc3cc(C(=O)N[C@@H](C)c4ccccc4)ccc3Sc3ccc(N)cc3)ncnc2n1 [compound of FIG. 2B]
HCV 1b replicon
  increase in HCV replication inhibitory activities compared to the compound of FIG. 2A: over 600 fold
HCV 1a replicon
  increase in HCV replication inhibitory activities compared to the compound of FIG. 2A: over 1,000 fold
